This is an account of results in publication PMC6445228, “Synthesis and biological evaluation of anti-Toxoplasma gondii activity of a novel scaffold of thiazolidinone derivatives” (Journal of Enzyme Inhibition and Medicinal Chemistry, 2017).

Where two headings read alike, the source gives them in different places. A value given as a limit tells only on which side of the number the result lay.

In data set [1] the test system is human foreskin fibroblast (HFF). The data set can be described thus: Five-day growth inhibition assay, host cell cytotoxicity. As to conditions: 120 h. As to the method:
(§1) Using published methods[8]^,[19], all of the prepared N-substituted thiazolidinones derivatives were evaluated in vitro for (i) host cell cytotoxicity as well as for the ability to inhibit tachyzoite growth over a period of 5 days (Table 1), for (ii) the ability to inhibit tachyzoite invasion of host cells (Figure 1), and for (iii) the ability to inhibit intracellular tachyzoite replication (Figure 2).
(§2) Compounds were tested for the ability to inhibit in vitro tachyzoite (T. gondii RH-2 F (50839); ATCC, VA) and human foreskin fibroblast (HFF; ATCC) growth for 120 h using a published colorimetric assay[8]^,[19]. Stock solutions of all compounds were 10 mM in DMSO. Serial 0.5 log10 dilutions (320–0.032 μM) of each compound were tested. Data from three separate experiments were analysed and the IC50, IC90, and TD50 calculated using Calcusyn software (Biosoft, Cambridge, UK). The therapeutic index (TI), a measure of specific anti-T. gondii activity, was calculated with the formula shown under Table 1.

Data set [2] has as its system T. gondii RH-2 F tachyzoites. The data set can be described thus: Five-day growth inhibition assay (tachyzoite growth, colorimetric). Format: cell-based, Toxoplasma gondii. As to conditions: 120 h, T. gondii RH-2 F in HFF, three experiments; for IC50: read-out: IC50, median inhibitory concentration, a measure of tachyzoite inhibition; for IC90: read-out: IC90, concentration at which 90% of the tachyzoite growth is inhibited. As to the method:
as §1, §2
We explored the chemical space and the influence on the biological activity of different groups (substituted aromatic and bicyclic rings) at the lactam NH of the core nucleus. […] In the five-day growth inhibition assay, compounds were added only once, just before addition of tachyzoites, and thus were present for multiple cycles, up to 20, of parasite replication.

The mark [3] stands for this setting: HFF cells, top concentration 320 μM.

Regarding `O=C1C(O)=C([C@H]2CC[C@H](c3ccc(Cl)cc3)CC2)C(=O)c2ccccc21` [Atovaquone, reference compound], in data set [1] (human), the “TD50, median toxicity dose, a measure of cytotoxicity against host cells” value (“TD50, median toxicity dose, a measure” below) came to 24 µM. Also, in data set [2] (Toxoplasma gondii), the IC50 worked out at 0.2 µM and the IC90 was determined as 2 µM.
On to `CCCCC(CC)=NN=C1SCC(=O)N1Cc1ccccc1[N+](=O)[O-]` [Compound 1, 2-((Heptan-3-ylidene)hydrazono)-3-(2-nitrobenzyl)thiazolidin-4-one], for which the melting point lay within 67 to 69 °C. The “TD50, median toxicity dose, a measure” value in data set [1] (human) turned out to be 236 µM. In addition, in data set [2] (Toxoplasma gondii), the IC50 worked out at 20 µM and the IC90 was 111 µM.
For `CC(=NN=C1SCC(=O)N1Cc1ccccc1[N+](=O)[O-])c1cccs1` [Compound 2, 3-(2-Nitrobenzyl)-2-((1-(thiophen-2-yl)ethylidene)hydrazono)thiazolidin-4-one], the melting point lay in the range of 150 to 151 °C. Also, the “TD50, median toxicity dose, a measure” value in data set [1] (human) was determined as 280 µM. Further, in data set [2] (Toxoplasma gondii), the IC50 is 37 µM and the IC90 was found to be 155 µM.
Take `CCCCC(CC)=NN=C1SCC(=O)N1Cc1cccc([N+](=O)[O-])c1` [Compound 4, 2-((Heptan-3-ylidene)hydrazono)-3–(3-nitrobenzyl)thiazolidin-4-one]: the “TD50, median toxicity dose, a measure” value in data set [1] (human) stood at 68 µM. Further, in data set [2] (Toxoplasma gondii), the IC50 turned out to be 44 µM and the IC90 came to 138 µM.
Compound `CC(=NN=C1SCC(=O)N1Cc1cccc([N+](=O)[O-])c1)c1cccs1` [Compound 5, 3-(3-Nitrobenzyl)-2-((1-(thiophen-2-yl)ethylidene)hydrazono)thiazolidin-4-one] returned a melting point of 165 to 170 °C. For the same compound, the “TD50, median toxicity dose, a measure” value in data set [1] (human) was no less than 320 µM. Further, in data set [2] (Toxoplasma gondii), the IC50 came to 52 µM and the IC90 amounted to 171 µM.
Regarding `CC(=NN=C1SCC(=O)N1Cc1cccc([N+](=O)[O-])c1)c1ccc[cH-]1.[Fe+2].c1cc[cH-]c1` [Compound 6, 3-(3-Nitrobenzyl)-2-((1-(ferrocen-2-yl)ethylidene)hydrazono)thiazolidin-4-one], the “TD50, median toxicity dose, a measure” value in data set [1] (setting [3]) was no less than 320 µM. Besides, in data set [2], the IC50 turned out to be 24 µM and the IC90 stood at 152 µM.
As for `CCCCC(CC)=NN=C1SCC(=O)N1Cc1ccc([N+](=O)[O-])cc1` [Compound 7, 2-((Heptan-3-ylidene)hydrazono)-3-(4-nitrobenzyl)thiazolidin-4-one], in data set [1] (human), the “TD50, median toxicity dose, a measure” value stood at 98 µM. Further, in data set [2] (Toxoplasma gondii), the IC50 was 32 µM and the IC90 came to 128 µM.
Take `CCCCC(CC)=NN=C1SCC(=O)N1Cc1ccccc1F` [Compound 10, 3-(2-Fluorobenzyl)-2-((heptan-3-ylidene)hydrazono)thiazolidin-4-one]: in data set [1] (human), the “TD50, median toxicity dose, a measure” value was 90 µM. Moreover, in data set [2] (Toxoplasma gondii), the IC50 came out at 24 µM and the IC90 was determined as 104 µM.
`CC(=NN=C1SCC(=O)N1Cc1ccccc1F)c1cccs1` [Compound 11, 3-(2-Fluorobenzyl)-2-((1-(thiophen-2-yl)ethylidene)hydrazono)thiazolidin-4-one] registered a melting point of 80 to 85 °C. The “TD50, median toxicity dose, a measure” value in data set [1] (human) was 82 µM. For the same compound, in data set [2] (Toxoplasma gondii), the IC50 is 25 µM and the IC90 is 103 µM.
Compound `CCCCC(CC)=NN=C1SCC(=O)N1Cc1cccc(F)c1` [Compound 13, 3-(3-Fluorobenzyl)-2-((heptan-3-ylidene)hydrazono)thiazolidin-4-one] returned a melting point of 30 to 31 °C. Further, the “TD50, median toxicity dose, a measure” value in data set [1] (human) turned out to be 246 µM. Besides, in data set [2] (Toxoplasma gondii), the IC50 turned out to be 18 µM and the IC90 was found to be 99 µM.
Taken in the same sequence, the figures for `CC(=NN=C1SCC(=O)N1Cc1cccc(F)c1)c1cccs1` [Compound 14, 3-(3-Fluorobenzyl)-2-((1-(thiophen-2-yl)ethylidene)hydrazono)thiazolidin-4-one] were 84 to 85 °C, 178 µM, 45 µM and 147 µM.
Take `CCCCC(CC)=NN=C1SCC(=O)N1Cc1ccc(F)cc1` [Compound 16, 3–(4-Fluorobenzyl)-2-((heptan-3-ylidene)hydrazono)thiazolidin-4-one]: the “TD50, median toxicity dose, a measure” value in data set [1] (human) came to 192 µM. Besides, in data set [2] (Toxoplasma gondii), the IC50 is 29 µM and the IC90 stood at 107 µM.
Compound `CC(=NN=C1SCC(=O)N1Cc1ccc(F)cc1)c1cccs1` [Compound 17, 3-(4-Fluorobenzyl)-2-((1-(thiophen-2-yl)ethylidene)hydrazono)thiazolidin-4-one] registered a melting point of 118 to 123 °C. Besides, the “TD50, median toxicity dose, a measure” value in data set [1] (human) is no less than 320 µM. For the same compound, in data set [2] (Toxoplasma gondii), the IC50 was found to be 72 µM and the IC90 is 312 µM.
As to `CCCCC(CC)=NN=C1SCC(=O)N1Cc1ccccc1Cl` [Compound 19, 3-(2-Chlorobenzyl)-2-((heptan-3-ylidene)hydrazono)thiazolidin-4-one], the “TD50, median toxicity dose, a measure” value in data set [1] (human) was 95 µM. For the same compound, in data set [2] (Toxoplasma gondii), the IC50 came to 39 µM and the IC90 was found to be 183 µM.
Compound `CC(=NN=C1SCC(=O)N1Cc1ccccc1Cl)c1cccs1` [Compound 20, 3-(2-Chlorobenzyl)-2-((1-(thiophen-2-yl)ethylidene)hydrazono)thiazolidin-4-one] registered a melting point of 100 to 102 °C. In addition, the “TD50, median toxicity dose, a measure” value in data set [1] (human) stood at 84 µM. For the same compound, in data set [2] (Toxoplasma gondii), the IC50 worked out at 34 µM and the IC90 came out at 112 µM.
As for `CC(=NN=C1SCC(=O)N1Cc1ccccc1Cl)c1ccc[cH-]1.[Fe+2].c1cc[cH-]c1` [Compound 21, 3-(2-Chlorobenzyl)-2-((1-(ferrocen-2-yl)ethylidene)hydrazono)thiazolidin-4-one], the “TD50, median toxicity dose, a measure” value in data set [1] (setting [3]) was no less than 320 µM. Also, in data set [2], the IC50 turned out to be 9 µM and the IC90 stood at 24 µM.
On to `CCCCC(CC)=NN=C1SCC(=O)N1Cc1cccc(Cl)c1` [Compound 22, 3-(3-Chlorobenzyl)-2-((heptan-3-ylidene)hydrazono)thiazolidin-4-one], for which the “TD50, median toxicity dose, a measure” value in data set [1] (human) was determined as 165 µM. In data set [2] (Toxoplasma gondii), the IC50 is 19 µM and the IC90 stood at 106 µM.
Consider `CC(=NN=C1SCC(=O)N1Cc1cccc(Cl)c1)c1cccs1` [Compound 23, 3-(3-Chlorobenzyl)-2-((1-(thiophen-2-yl)ethylidene)hydrazono)thiazolidin-4-one], for which the melting point lay in the range of 129 to 131 °C. Further, in data set [1] (human), the “TD50, median toxicity dose, a measure” value was 147 µM. In data set [2] (Toxoplasma gondii), the IC50 came to 51 µM and the IC90 came to 256 µM.
As for `CC(=NN=C1SCC(=O)N1Cc1cccc(Cl)c1)c1ccc[cH-]1.[Fe+2].c1cc[cH-]c1` [Compound 24, 3-(3-Chlorobenzyl)-2-((1-(ferrocen-2-yl)ethylidene)hydrazono)thiazolidin-4-one], the “TD50, median toxicity dose, a measure” value in data set [1] (setting [3]) was no less than 320 µM. Further, in data set [2], the IC50 amounted to 8 µM and the IC90 came out at 17 µM.
`CCCCC(CC)=NN=C1SCC(=O)N1Cc1ccc(Cl)cc1` [Compound 25, 3-(4-Chlorobenzyl)-2-((heptan-3-ylidene)hydrazono)thiazolidin-4-one]: the “TD50, median toxicity dose, a measure” value in data set [1] (human) came out at 244 µM. In addition, in data set [2] (Toxoplasma gondii), the IC50 worked out at 51 µM and the IC90 amounted to 131 µM.
The compound `CC(=NN=C1SCC(=O)N1Cc1ccc(Cl)cc1)c1cccs1` [Compound 26, 3-(4-Chlorobenzyl)-2-((1-(thiophen-2-yl)ethylidene)hydrazono)thiazolidin-4-one] came in with a melting point of 146 to 151 °C. The “TD50, median toxicity dose, a measure” value in data set [1] (human) is no less than 320 µM. In data set [2] (Toxoplasma gondii), the IC50 stood at 81 µM and the IC90 came to 211 µM.
With `CCCCC(CC)=NN=C1SCC(=O)N1Cc1cccc2ccccc12` [Compound 28, 2-((Heptan-3-ylidene)hydrazono)-3-(naphthalen-1-ylmethyl)thiazolidin-4-one], the “TD50, median toxicity dose, a measure” value in data set [1] (human) was 271 µM. In data set [2] (Toxoplasma gondii), the IC50 turned out to be 37 µM and the IC90 stood at 138 µM.
Regarding `CCCCC(CC)=NN=C1SCC(=O)N1CN1C(=O)c2ccccc2C1=O` [Compound 31, 2-((2-((Heptan-3-ylidene)hydrazono)-4-oxothiazolidin-3-yl)methyl)isoindoline-1,3-dione], in data set [1] (human), the “TD50, median toxicity dose, a measure” value was no less than 320 µM. Besides, in data set [2] (Toxoplasma gondii), the IC50 amounted to 88 µM and the IC90 stood at 402 µM.
Take `CC(=NN=C1SCC(=O)N1CN1C(=O)c2ccccc2C1=O)c1ccc[cH-]1.[Fe+2].c1cc[cH-]c1` [Compound 33, 2-((4-Oxo-2-((1-(ferrocen-2-yl)ethylidene)hydrazono)thiazolidin-3-yl)methyl)isoindoline-1,3-dione]: in data set [1] (setting [3]), the “TD50, median toxicity dose, a measure” value worked out at 138 µM. In data set [2], the IC50 came to 82 µM and the IC90 is 286 µM.

A word on the melting point: it is the temperature of the solid-liquid transition.
